Laboratory results reported in patent US20230131427A1, “FUNGICIDAL COMPOSITIONS” (SYNGENTA CROP PROTECTION AG, priority 2020, published 2023).
Read-outs that look alike come from different tables or passages of the source.

Columns and labels:
Septoria glycines = assay: Example B2: mixtures, preventative activity against Septoria glycines (brown spot), liquid culture; type: cell-based; conditions: component B alone; for inhibition at 0.1 ppm / inhibition at 0.3 ppm: Septoria glycines; for inhibition at 0.1 ppm: read-out: Activity (%) B
Description: (§1) This occurs whenever the action of an active ingredient combination is greater than the sum of the actions of the individual components. The action to be expected E for a given active ingredient combination obeys the so-called COLBY formula and can be calculated as follows (COLBY, S. R. “Calculating synergistic and antagonistic responses of herbicide combination”. Weeds, Vol. 15, pages 20-22; 1967):
(§2) If the action actually observed (O) is greater than the expected action (E), then the action of the combination is super-additive, i.e. there is a synergistic effect. In mathematical terms, synergism corresponds to a positive value for the difference of (O-E). In the case of purely complementary addition of activities (expected activity), said difference (O-E) is zero. A negative value of said difference (O-E) signals a loss of activity compared to the expected activity.
Conidia of the fungus harvested from a fresh culture grown on artificial media, were directly mixed into nutrient broth (PDB potato dextrose broth). A DMSO solution of the test compounds was placed into a microtiter plate (96-well format) and the nutrient broth containing the fungal spores was added to it.
(§3) Fungicidal activity was evaluated on a 100-0 scale (100=no disease growth; 0=well completely covered by mycelium).

Septoria tritici = assay: Example B3: mixtures, preventative activity against Septoria tritici (leaf blotch), liquid culture; type: cell-based; conditions: for inhibition at 0.1 ppm / inhibition at 0.3 ppm: Zymoseptoria tritici, read-out: Activity (%) B
Description: as §1, §2
(§4) Conidia of the fungus from cryogenic storage were directly mixed into nutrient broth (PDB potato dextrose broth). A DMSO solution of the test compounds was placed into a microtiter plate (96-well format) and the nutrient broth containing the fungal spores was added to it.
as §3

[1] = system: Mycosphaerella arachidis syn. Cercospora arachidicola; assay: Example B4: mixtures, preventative activity against Mycosphaerella arachidis syn. Cercospora arachidicola (brown leaf spot of peanut), liquid culture; type: cell-based; conditions: component B alone
Description: as §1, §2, §4
Cercospora arachidicola (Brown leaf spot of peanut). Fungicidal activity was evaluated on a 100-0 scale (100=no disease growth; 0=well completely covered by mycelium).

[2] = system: Glomerella lagenarium syn. Colletotrichum lagenarium; assay: Example B1: mixtures, preventative activity against Glomerella lagenarium syn. Colletotrichum lagenarium, liquid culture; type: cell-based; conditions: for inhibition at 0.1 ppm / inhibition at 0.3 ppm: Colletotrichum orbiculare, read-out: Activity (%) B
Description: as §1, §2, §4, §3

Phakopsora pachyrhizi = assay: Example B5: preventative activity against Phakopsora pachyrhizi (soybean rust), whole soybean plants sprayed, leaf disks inoculated; type: in vivo
Method: Whole soybean plants are treated with the recited active ingredients 4 weeks after planting. 1 day after spraying leaf disks are cut from the first trifoliate leaf. Five repetitions at each rate are conducted. The leaf disks are inoculated with Phakopsora pachyrhizi (Asian soybean rust) one day after treatment.
Evaluation of the leaf disks is conducted 11 to 14 days after inoculation and the activity is derived from the relation of the treated vs untreated, infested check (100=no disease, no damage to the leaf, 0=high infestation, leaf damaged heavily). The rates of the active ingredients used are given in the tables as g active ingredient (a.i.)/ha.

[3] = Mycosphaerella arachidis, 0.1 ppm
[4] = Phakopsora pachyrhizi, foliar, applied alone, 22.5 g/ha, read-out: Observed Activity (% of untreated) against Phakopsora pachyrhizi
[5] = Phakopsora pachyrhizi, foliar, applied alone, 45 g/ha, read-out: Observed Activity (% of untreated) against Phakopsora pachyrhizi
[6] = component B alone, 0.1 ppm, 100-0 scale
[7] = component B alone, 0.3 ppm, 100-0 scale
[8] = active ingredient alone, 2.25 g/ha
[9] = active ingredient alone, 4.5 g/ha
[10] = active ingredient alone, 9 g/ha
[11] = Phakopsora pachyrhizi, foliar, read-out: Observed Activity (% of untreated) against Phakopsora pachyrhizi

SMILES: COc1ccnc(C(=O)N[C@@H](C)C(=O)O[C@@H](C)C(c2ccc(F)cc2)c2ccc(F)cc2)c1OC(C)=O [florylpicoxamid, reference compound]
- Activity (%) B (Septoria glycines; 0.01 ppm): 0%
- Activity (%) B (Septoria glycines; 0.01 ppm, 100-0 scale): 0%
- Activity (%) B (Septoria glycines; 0.02 ppm): 20%
- Activity (%) B (Septoria glycines; 0.02 ppm, 100-0 scale): 20%
- Activity (%) B (Septoria tritici; component B alone, 0.01 ppm, 100-0 scale): 0%
- Activity (%) B (Septoria tritici; component B alone, 0.01 ppm, 72 hrs): 0%
- Activity (%) B (Septoria tritici; component B alone, 0.02 ppm, 100-0 scale): 20%
- Activity (%) B (Septoria tritici; component B alone, 0.02 ppm, 72 hrs): 20%
- Activity (%) B ([1]; 0.01 ppm): 70%
- Activity (%) B ([1]; 0.02 ppm): 90%

SMILES: O=C(NCCc1ncc(C(F)(F)F)cc1Cl)c1ccccc1C(F)(F)F [fluopyram]
- inhibition at 0.1 ppm (Septoria tritici; 72 h, component B alone, 0.1 ppm, 72 hrs, 100=no disease growth): 0%
- inhibition at 0.3 ppm (Septoria tritici; 72 h, component B alone, 0.3 ppm, 72 hrs): 50%
- inhibition at 0.1 ppm [1, 3]: 0%
- inhibition at 0.3 ppm ([1]; Mycosphaerella arachidis, 0.3 ppm): 90%

SMILES: CC(C)c1ccc(Cl)cc1CN(C(=O)c1c(C(F)F)nn(C)c1F)C1CC1 [isoflucypram]
- Activity (%) B ([1]; 0.1 ppm): 90%
- Activity (%) B ([1]; 0.3 ppm): 100%

SMILES: CON=C(C(=O)OC)c1ccccc1CON=C(C)c1cccc(C(F)(F)F)c1 [trifloxystrobin, reference compound]
- inhibition at 0.1 ppm ([2]; component B alone, 0.1 ppm): 90%
- inhibition at 0.3 ppm ([2]; component B alone, 0.3 ppm): 90%
- inhibition at 0.1 ppm (Septoria glycines; 0.1 ppm, 100-0 scale): 90%
- inhibition at 0.3 ppm (Septoria glycines; 0.3 ppm, 100-0 scale): 100%
- inhibition at 2.25 g/ha (Phakopsora pachyrhizi; Phakopsora pachyrhizi, foliar, applied alone, 2.25 g/ha, read-out: Observed Activity (% of untreated) against Phakopsora pachyrhizi): 0%
- inhibition at 4.5 g/ha (Phakopsora pachyrhizi; Phakopsora pachyrhizi, foliar, applied alone, 4.5 g/ha, read-out: Observed Activity (% of untreated) against Phakopsora pachyrhizi): 3%
- inhibition at 9 g/ha (Phakopsora pachyrhizi; Phakopsora pachyrhizi, foliar, applied alone, 9 g/ha, read-out: Observed Activity (% of untreated) against Phakopsora pachyrhizi): 0%
- inhibition at 18 g/ha (Phakopsora pachyrhizi; Phakopsora pachyrhizi, foliar, applied alone, 18 g/ha, read-out: Observed Activity (% of untreated) against Phakopsora pachyrhizi): 19%

SMILES: OC(Cc1ccccc1Cl)(Cn1nc[nH]c1=S)C1(Cl)CC1 (stereo not drawn) [proth ioconazole, prothioconazole, reference compound]
- inhibition at 0.3 ppm ([2]; component B alone, 0.3 ppm): 50%
- Activity (%) B ([2]; component B alone, 0.1 ppm): 20%
- inhibition at 0.1 ppm (Septoria glycines; 0.1 ppm, 100-0 scale): 90%
- inhibition at 0.3 ppm (Septoria glycines; 0.3 ppm, 100-0 scale): 90%
- Activity (%) B (Septoria glycines; 0.3 ppm): 50%
- inhibition at 22.5 g/ha (Phakopsora pachyrhizi; Phakopsora pachyrhizi, foliar, active ingredient alone, 22.5 g/ha, read-out: Observed Activity (%) (% of untreated)): 47%
- inhibition at 45 g/ha (Phakopsora pachyrhizi; Phakopsora pachyrhizi, foliar, active ingredient alone, 45 g/ha, read-out: Observed Activity (%) (% of untreated)): 80%
- inhibition at 90 g/ha (Phakopsora pachyrhizi; Phakopsora pachyrhizi, foliar, active ingredient alone, read-out: Observed Activity (%) (% of untreated)): 94%
- inhibition at 22.5 g/ha (Phakopsora pachyrhizi; [4]): 47%
- inhibition at 45 g/ha (Phakopsora pachyrhizi; [5]): 80%
- inhibition at 90 g/ha (Phakopsora pachyrhizi; Phakopsora pachyrhizi, foliar, applied alone, read-out: Observed Activity (% of untreated) against Phakopsora pachyrhizi): 94%

SMILES: Cn1cc(C(=O)Nc2ccccc2-c2cc(F)c(F)c(F)c2)c(C(F)F)n1 [fluxapyroxad, reference compound]
- Activity (%) B ([2]; component B alone, 0.1 ppm): 0%
- Activity (%) B ([2]; component B alone, 0.3 ppm): 0%
- Observed Activity (% of untreated) against Phakopsora pachyrhizi (Phakopsora pachyrhizi; applied alone, 2.25 g/ha): 8%
- Observed Activity (% of untreated) against Phakopsora pachyrhizi (Phakopsora pachyrhizi; applied alone, 4.5 g/ha): 7%
- Observed Activity (% of untreated) against Phakopsora pachyrhizi (Phakopsora pachyrhizi; applied alone, 9 g/ha): 66%

SMILES: CCOC(=O)C1CC(=O)C(=C(O)C2CC2)C(=O)C1 (stereo not drawn) [trinexapac-ethyl, reference compound]
- inhibition at 0.1 ppm ([2]; component B alone, 0.1 ppm): 0%
- inhibition at 0.3 ppm ([2]; component B alone, 0.3 ppm): 0%
- inhibition at 22.5 g/ha (Phakopsora pachyrhizi; [4]): 0%
- inhibition at 22.5 g/ha (Phakopsora pachyrhizi; Phakopsora pachyrhizi, foliar, applied alone, 22.5 g/ha, read-out: Observed Activity (%) (% of untreated) against Phakopsora pachyrhizi): 0%
- inhibition at 45 g/ha (Phakopsora pachyrhizi; [5]): 0%
- inhibition at 45 g/ha (Phakopsora pachyrhizi; Phakopsora pachyrhizi, foliar, applied alone, 45 g/ha, read-out: Observed Activity (%) (% of untreated) against Phakopsora pachyrhizi): 0%

SMILES: O=C1c2ccccc2C(=O)N1SC(Cl)(Cl)Cl [folpet]
- inhibition at 0.1 ppm (Septoria tritici; [6]): 0%
- inhibition at 0.3 ppm (Septoria tritici; [7]): 0%
- inhibition at 0.1 ppm [1, 3]: 20%

SMILES: Cc1cccc(-n2nnn(C)c2=O)c1COc1ccn(-c2ccc(Cl)cc2)n1 [metyltetraprole, reference compound]
- Activity (%) B ([2]; component B alone, 0.1 ppm): 90%
- Activity (%) B ([2]; component B alone, 0.3 ppm): 90%
- Observed Activity (%) (% of untreated) (Phakopsora pachyrhizi; [8]): 1%
- Observed Activity (%) (% of untreated) (Phakopsora pachyrhizi; [9]): 0%
- Observed Activity (%) (% of untreated) (Phakopsora pachyrhizi; [10]): 7%
- Observed Activity (%) (% of untreated) (Phakopsora pachyrhizi; active ingredient alone, 18 g/ha): 67%
- Observed Activity (% of untreated) against Phakopsora pachyrhizi (Phakopsora pachyrhizi; applied alone, 2.25 g/ha): 1%
- Observed Activity (% of untreated) against Phakopsora pachyrhizi (Phakopsora pachyrhizi; applied alone, 4.5 g/ha): 0%
- Observed Activity (% of untreated) against Phakopsora pachyrhizi (Phakopsora pachyrhizi; applied alone, 9 g/ha): 7%
- Observed Activity (% of untreated) against Phakopsora pachyrhizi (Phakopsora pachyrhizi; applied alone, 18 g/ha): 67%

SMILES: Cn1cc(C(=O)Nc2cccc3c2[C@@H]2CC[C@H]3C2=C(Cl)Cl)c(C(F)F)n1 (racemic) [benzovindiflupyr, reference compound]
- Activity (%) B ([2]; component B alone, 0.1 ppm): 50%
- Activity (%) B ([2]; component B alone, 0.3 ppm): 100%
- Activity (%) B (Septoria tritici; [6]): 50%
- Activity (%) B (Septoria tritici; [7]): 70%
- Observed Activity (%) (% of untreated) (Phakopsora pachyrhizi; [8]): 34%
- Observed Activity (%) (% of untreated) (Phakopsora pachyrhizi; [9]): 80%
- Observed Activity (%) (% of untreated) (Phakopsora pachyrhizi; [10]): 99%
- Observed Activity (% of untreated) against Phakopsora pachyrhizi (Phakopsora pachyrhizi; applied alone, 2.25 g/ha): 34%
- Observed Activity (% of untreated) against Phakopsora pachyrhizi (Phakopsora pachyrhizi; applied alone, 4.5 g/ha): 80%
- Observed Activity (% of untreated) against Phakopsora pachyrhizi (Phakopsora pachyrhizi; applied alone, 9 g/ha): 99%

SMILES: [Cl-].[Cu+2].[Cu+2].[OH-].[OH-].[OH-] [copper oxychloride, reference compound]
- Activity (%) B ([2]; component B alone, 0.1 ppm): 0%
- Activity (%) B ([2]; component B alone, 0.3 ppm): 0%
- Observed Activity (% of untreated) against Phakopsora pachyrhizi (Phakopsora pachyrhizi; applied alone, 22.5 g/ha): 2%
- Observed Activity (% of untreated) against Phakopsora pachyrhizi (Phakopsora pachyrhizi; applied alone, 45 g/ha): 5%

SMILES: S1SSSSSSS1 [sulphur]
- inhibition at 0.1 ppm ([2]; component B alone, 0.1 ppm): 0%
- inhibition at 0.3 ppm ([2]; component B alone, 0.3 ppm): 0%

SMILES: Cc1nc2c(F)c(F)ccc2cc1Oc1cccc(F)c1C(C)(C)O [ipflufenoquin]
- Activity (%) B ([2]; component B alone, 0.1 ppm): 20%
- Activity (%) B ([2]; component B alone, 0.3 ppm): 100%
- Activity (%) B (Septoria glycines; 0.1 ppm, 100-0 scale): 0%
- Activity (%) B (Septoria glycines; 0.3 ppm, 100-0 scale): 0%
- Activity (%) B (Septoria tritici; [6]): 0%
- Activity (%) B (Septoria tritici; [7]): 20%

SMILES: N#Cc1c[nH]cc1-c1cccc2c1OC(F)(F)O2 [fludioxonil, reference compound]
- inhibition at 0.1 ppm [2]: 0%
- inhibition at 0.3 ppm [2]: 0%
- inhibition at 0.1 ppm (Septoria tritici; 72 h): 0%
- inhibition at 0.3 ppm (Septoria tritici; 72 h): 20%
- inhibition at 0.1 ppm (Septoria tritici): 0%
- inhibition at 0.3 ppm (Septoria tritici): 20%
- inhibition at 450 g/ha (Phakopsora pachyrhizi; [11]): 0%
- inhibition at 900 g/ha (Phakopsora pachyrhizi; [11]): 1%

SMILES: CON(C(=O)c1cn(C)nc1C(F)F)C(C)Cc1c(Cl)cc(Cl)cc1Cl (stereo not drawn) [pydiflumetofen, reference compound]
- Activity (%) B ([2]; component B alone, 0.1 ppm): 0%
- Activity (%) B ([2]; component B alone, 0.3 ppm): 0%
- Observed Activity (%) (% of untreated) against Phakopsora pachyrhizi (Phakopsora pachyrhizi; applied alone, 22.5 g/ha): 28%
- Observed Activity (%) (% of untreated) against Phakopsora pachyrhizi (Phakopsora pachyrhizi; applied alone, 45 g/ha): 74%
